Test results from ChEMBL document CHEMBL5724709, “EUbOPEN Chemogenomics Library - IncuCyte” (2024).

Columns and labels:
Assay type in all cases: toxicity, cell-based
HEK-293T = test: Incucyte cell viability with HEK293T; conditions: human, 24 h, 10 µM, compound concentration 10 uM
Fibroblast = test: Incucyte cell viability with human fibroblast; conditions: 24 h, 10 µM, compound concentration 10 uM
U2OS = test: Incucyte cell viability with U2OS; conditions: human, 24 h, 10 µM, compound concentration 10 uM
Further: unitless GR value; below 1 slowed growth and below 0 cell loss.

| Compound | Growth Rate (HEK-293T; replicate number 1) | Growth Rate (HEK-293T; replicate number 2) | Growth Rate (Fibroblast; replicate number 1) | Growth Rate (Fibroblast; replicate number 2) | Growth Rate (U2OS; replicate number 1) | Growth Rate (U2OS; replicate number 2) |
| --- | --- | --- | --- | --- | --- | --- |
| O=C(CCl)Nc1ccc(S(=O)(=O)c2ccc(NC(=O)CCl)cc2)cc1 | -0.4 | -0.18 | -0.61 | -0.63 | -0.42 | 0.05 |
| COc1cc2c(NC3CCN(CC4CCCCC4)CC3)nc(N3CCCN(C(C)C)CC3)nc2cc1OCCCN1CCCCC1 | -0.58 | -0.42 | -0.44 | -0.13 | -0.52 | -0.15 |
| CN1CCc2c(n(Cc3ccc(C(=O)NO)cc3)c3ccccc23)C1 | 0.89 | 1 | 1 | 0.54 | 0.34 | 1 |
| O=C(NCC(=O)N1CCCCC1)Nc1ccc2nnsc2c1 | 0.75 | 0.97 | 0.36 | -0.42 | 0.93 | – |
| O=C(NO)c1cccc(C(=O)NCCc2ccccc2)c1 | 0.83 | 0.99 | 1 | -0.07 | 0.02 | 0.85 |
| Nc1ccccc1NC(=O)CCCCCC(=O)Nc1ccccc1 | 1 | – | 1 | -0.07 | 0.46 | 1 |
| Cc1ccc(NC2=CC(=O)c3sc(C)nc3C2=O)cc1 | -0.37 | -0.23 | -0.84 | -0.96 | -0.86 | -0.45 |
| CCOC(=O)NCCCC(=O)NCCc1ccccc1 | 0.61 | 0.8 | 1 | – | 0.48 | 0.84 |
| O=C(NCC1(c2nc(-c3ccccc3)cs2)CCOCC1)c1cccc(-c2noc(C(F)(F)F)n2)c1 | 0.36 | 0.64 | 1 | 0.44 | 1 | – |
| CC(C)NCC(O)COC(Cn1c2ccccc2c2ccccc21)Cn1c2ccccc2c2ccccc21 (configuration not stated) | 1 | – | 1 | 0.03 | -0.53 | 1 |
| CC1=NN(c2ccc(C(=O)O)cc2)C(=O)/C1=C/c1ccc(-c2cc(C)c(C)cc2[N+](=O)[O-])o1 | 0.84 | 1 | 1 | – | 0.18 | 1 |
| COc1ccc2nc3[nH]nc(C)c3c(NCCOCCO)c2c1 | 0.57 | 0.77 | 0.52 | 0.43 | 0.89 | 1 |
| CCC(CC)(NC(=O)C(C)C)C(=O)N[C@@H](CCCNC(=N)N)C(=O)NC1(C(=O)NC(c2ccc(F)cc2)c2ccc(F)cc2)CCCC1 | 0.95 | 1 | 0.56 | -0.56 | 1 | 0.97 |
| CCC(=O)N1CCOc2c(cc(-c3cc(OC)cc(OC)c3)cc2C(=O)N[C@H]2CCCN(C)C2)C1 | 0.39 | 0.7 | 0.84 | 0.98 | 0.42 | 1 |
| Nc1ccc(-c2cccs2)cc1NC(=O)c1ccc2nc(N3CCNCC3)ccc2c1 | 0.92 | 0.99 | 1 | – | 0.21 | 0.63 |
| COc1ccc(/C=C/C(=O)NO)c(-c2ccc(-c3ccccc3)cc2)c1 | 0.41 | 0.49 | -0.1 | -0.52 | -0.07 | 1 |
| COc1cc2c(NC3CCN(C)CC3)cc(-c3ccc(C)o3)nc2cc1OCCCN1CCCC1 | -0.35 | -0.25 | 0.13 | -0.42 | -0.74 | -0.55 |
| COc1cc2c(NCC3CCN(C)CC3)cc(-c3ccc(C)o3)nc2cc1OCCCN1CCCC1 | -0.36 | -0.29 | 0.34 | -0.3 | -0.64 | -0.51 |
| CNC(=O)c1ccc(-c2cc3cccc(-c4nn(C5CCOCC5)c5c4CN(C(C)=O)CC5)c3cn2)cn1 | 0.61 | 0.57 | 1 | – | 0.12 | 0.95 |
| CC(=O)Nc1ccc(C(=O)Nc2ccc(F)cc2N)cc1 | 0.67 | 1 | 1 | – | 1 | – |

| Compound | Growth Rate (HEK-293T; replicate number 1) | Growth Rate (HEK-293T; replicate number 2) | Growth Rate (Fibroblast; replicate number 1) | Growth Rate (Fibroblast; replicate number 2) | Growth Rate (U2OS; replicate number 1) | Growth Rate (U2OS; replicate number 2) |
| --- | --- | --- | --- | --- | --- | --- |
| COc1nc(N)nc(Nc2cc(S(N)(=O)=O)ccc2N[C@@H](c2cccc3c2OC(F)(F)O3)c2ncccc2Cl)n1 | 0.97 | 1 | 1 | – | 1 | 0.89 |
| Cc1cc(C)cc(Oc2ccc(CNC(=O)[C@H](C)N)cc2C)c1.Cl | 0.84 | 0.89 | 1 | – | 0.69 | 1 |
| COc1nc(Nc2cc(S(C)(=O)=O)ccc2N[C@@H](c2cccc3c2OC(F)(F)O3)c2ncccc2Cl)nc(N2CCNCC2)n1 | -0.57 | -0.39 | -0.22 | -0.7 | -0.91 | -0.02 |
| O=C(NO)C(c1ccc(-c2ncc(C(F)(F)F)cn2)cc1)c1ccccc1F (configuration not stated) | -0.14 | 0.69 | 0.37 | -0.57 | 0.6 | 0.81 |
| C=CC(=O)Nc1cccc(-c2c[nH]cc2CN(C)CCN)c1 | 0.75 | 0.9 | 0.37 | 1 | 0.21 | 1 |
| OC1CN=C2c3ccn([C@@H]4O[C@H]([C@H](O)c5ccc(Cl)cc5)[C@@H](O)[C@H]4O)c3N=CN21 (some centres not stated) | 1 | – | 1 | -0.38 | 1 | 0.79 |
| Cc1ccc(N2C(=O)/C(=C/C=C/c3ccco3)C(=O)NC2=S)cc1Cl | 0.94 | 1 | 0.45 | 1 | 1 | – |
| CCCOC(=O)N1CCN(C(=O)c2ccc3c(Cl)cc(-c4ccc(C5(N)CC5)cc4)nc3c2)C[C@H]1C | 0.01 | 0.3 | 1 | -0.86 | 0.52 | 1 |
| CC(C)(CNC(=O)c1cccc(-c2noc(C(F)(F)F)n2)c1)c1coc(-c2ccccc2)n1 | 0.69 | 0.79 | 0.48 | 0.8 | 1 | – |
| Cc1ncccc1-c1cnc(NCc2c(F)ccc3c2CCO3)n2cnnc12 | 0.64 | 1 | 0.59 | 0.1 | 1 | 0.88 |
| CCCCCCCCCCCCCCCCNNC(=O)c1cccs1 | 0.8 | 1 | 0.8 | 0.19 | 0.83 | 1 |
| CNC(=O)Cn1cc(-c2ccc3c(c2)[C@H](F)C[C@]32NC(=O)N(CC(=O)N(Cc3ccc(F)cc3)[C@@H](C)C(F)(F)F)C2=O)cn1 | -0.53 | 0.24 | 0.7 | -0.43 | -0.12 | 0.63 |
| Cc1ccc(F)c2cc(C(=O)N[C@@H]3CCC[C@H](N4CC[C@H](N(C)S(C)(=O)=O)C4)C3)[nH]c12 | 0.35 | 0.62 | 1 | – | 1 | 0.67 |
| CC(C)(C)OC(=O)Nc1ccc(-c2cc(C(=O)NCCCCCCC(=O)NO)no2)cc1 | 0.72 | 0.67 | 1 | -0.09 | 0.28 | 0.63 |
| Cc1ncsc1-c1ccc([C@H](C)NC(=O)[C@@H]2C[C@@H](O)CN2C(=O)[C@@H](NC(=O)CNC(=O)c2ccc(F)c(-c3ccc(N4C[C@@H](C)N(C)[C@@H](C)C4)c(NC(=O)c4c[nH]c(=O)cc4C(F)(F)F)c3)c2)C(C)(C)C)cc1 | 0.6 | 0.78 | -0.11 | 0.89 | 1 | 0.89 |
| CN(C)Cc1ccc(S(=O)(=O)n2ccc(/C=C/C(=O)NO)c2)cc1.Cl | 0.53 | 0.75 | 0.79 | -0.05 | 0.51 | -0.17 |
| CCOCC1(COCC)CCC(c2n[nH]cc2CN(C)CCNC)CC1.Cl | 0.61 | 0.63 | 1 | 0.32 | 0.95 | – |
| Br.N#Cc1ccc(-c2csc(NN=C3CCCC3)n2)cc1 | -0.06 | 0.21 | 0.31 | 0.62 | 0.63 | 1 |
| CNCCN(C)Cc1cn[nH]c1-c1ccc(OC2CC(OCCC3CCOCC3)C2)cc1 (configuration not stated) | 0.64 | 0.82 | 0.77 | 0.95 | 0.23 | 1 |
